Key:
[1] = target: T1, Okp1(EYAA)‐Ame1 (Saccharomyces cerevisiae, UniProt P38313+P53298, E235A/Y238A); experiment: biochemical; assay type: binding
T1 construct: Full‐length mutant Okp1‐Ame1 complex (EYAA or I195Y as indicated) was tested for its association with FITC‐Cse4^END; 6His (C); made in house; host or cells: E. coli
Method: (§1) Results of a GST pulldown assay are shown. • The minimal Okp1‐Ame1 complex used for crystallography was tested for its association with FITC‐Cse4^END in a fluorescence polarization experiment.
(§2) Fluorescence polarization assays
(§3) FITC‐Cse4^28‐60 peptide was synthesized by the Tufts University Core Facility. 20 nM of FITC‐Cse4^28‐60 peptide was used in all reactions, and Okp1‐Ame1 concentrations were varied to determine the dissociation constant (K D ), in reaction buffer containing 100 mM HEPES, pH 7.5, 200 mM NaCl, 1 mM TCEP (full‐length Okp1‐Ame1 complex) or reaction buffer with 600 mM NaCl (truncated Okp1‐Ame1 complex).

[2] = target: T2, Okp1‐Ame1(I195Y) (Saccharomyces cerevisiae, UniProt P38313+P53298, I195Y); experiment: biochemical; assay type: binding
T2 construct: Full‐length mutant Okp1‐Ame1 complex (EYAA or I195Y as indicated) was tested for its association with FITC‐Cse4^END; 6His (C); made in house; host or cells: E. coli
T2 sequence (P38313 whole entry I195Y): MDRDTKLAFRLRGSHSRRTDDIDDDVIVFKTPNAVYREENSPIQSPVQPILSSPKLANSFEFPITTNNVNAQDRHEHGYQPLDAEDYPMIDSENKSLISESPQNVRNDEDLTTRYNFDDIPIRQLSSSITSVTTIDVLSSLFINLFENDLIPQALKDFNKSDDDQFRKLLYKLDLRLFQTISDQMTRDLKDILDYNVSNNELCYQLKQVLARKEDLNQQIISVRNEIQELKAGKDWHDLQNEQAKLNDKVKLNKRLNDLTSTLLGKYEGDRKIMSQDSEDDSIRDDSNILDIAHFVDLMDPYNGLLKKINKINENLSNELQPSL
T2 sequence (P53298 whole entry): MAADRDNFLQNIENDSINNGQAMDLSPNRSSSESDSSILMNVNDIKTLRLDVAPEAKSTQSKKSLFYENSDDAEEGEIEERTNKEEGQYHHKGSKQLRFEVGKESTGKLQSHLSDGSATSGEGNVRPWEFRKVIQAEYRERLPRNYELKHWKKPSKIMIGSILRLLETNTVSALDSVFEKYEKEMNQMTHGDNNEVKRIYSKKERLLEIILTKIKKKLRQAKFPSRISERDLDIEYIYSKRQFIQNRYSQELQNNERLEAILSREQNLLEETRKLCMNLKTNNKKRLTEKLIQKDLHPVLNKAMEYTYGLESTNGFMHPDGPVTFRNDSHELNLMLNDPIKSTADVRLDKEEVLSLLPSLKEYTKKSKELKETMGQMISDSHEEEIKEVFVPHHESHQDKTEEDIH
Method: as §1, §2, §3

T1 sequence (P38313 whole entry): as the sequence (P38313 whole entry I195Y) above, with Y195I counted along it
T1 sequence (P53298 whole entry E235A/Y238A): as the sequence (P53298 whole entry) above, with E235A, Y238A counted along it

## CC[C@H](C)[C@H](NC(=O)[C@H](CO)NC(=O)[C@H](CCC(N)=O)NC(=O)[C@H](CCC(N)=O)NC(=O)[C@H](CC(=O)O)NC(=O)CNC(=O)[C@H](C)N)C(=O)N[C@@H](CC(N)=O)C(=O)N[C@@H](CC(=O)O)C(=O)N[C@@H](CCCNC(=N)N)C(=O)N[C@@H](C)C(=O)N[C@@H](CC(C)C)C(=O)N[C@@H](CO)C(=O)N[C@@H](CC(C)C)C(=O)N[C@@H](CC(C)C)C(=O)N[C@@H](CCC(N)=O)C(=O)N[C@@H](CCCNC(=N)N)C(=O)N[C@H](C(=O)N[C@@H](CCCNC(=N)N)C(=O)N[C@@H](C)C(=O)N[C@H](C(=O)N[C@@H](CCCCN)C(=O)N[C@@H](CC(N)=O)C(=O)N[C@@H](CC(C)C)C(=O)N[C@@H](Cc1ccccc1)C(=O)N1CCC[C@H]1C(=O)N[C@@H](CCCNC(=N)N)C(=O)N[C@@H](CCCNC(=N)N)C(=O)N[C@@H](CCC(=O)O)C(=O)N[C@@H](CCC(=O)O)C(=O)N[C@@H](CCCNC(=N)N)C(=O)N[C@@H](CCCNC(=N)N)C(=O)N[C@@H](CCCNC(=N)N)C(=O)O)[C@@H](C)O)[C@@H](C)O [Cse4^END]
[1]
  Kd: > 3 µM
[2]
  Kd: > 3 µM

Reference: publication PMC10702835, “Recognition of centromere‐specific histone Cse4 by the inner kinetochore Okp1‐Ame1 complex” (EMBO Reports, 2023)
